What was measured:
[1] = target: T1, Kinesin-like protein KIF11 (Homo sapiens, UniProt P52732); assay: Inhibition of KSP-induced nucleolin phosphorylation in cell-based mitotic arrest assay; assay type: functional
T1 sequence (P52732 whole entry): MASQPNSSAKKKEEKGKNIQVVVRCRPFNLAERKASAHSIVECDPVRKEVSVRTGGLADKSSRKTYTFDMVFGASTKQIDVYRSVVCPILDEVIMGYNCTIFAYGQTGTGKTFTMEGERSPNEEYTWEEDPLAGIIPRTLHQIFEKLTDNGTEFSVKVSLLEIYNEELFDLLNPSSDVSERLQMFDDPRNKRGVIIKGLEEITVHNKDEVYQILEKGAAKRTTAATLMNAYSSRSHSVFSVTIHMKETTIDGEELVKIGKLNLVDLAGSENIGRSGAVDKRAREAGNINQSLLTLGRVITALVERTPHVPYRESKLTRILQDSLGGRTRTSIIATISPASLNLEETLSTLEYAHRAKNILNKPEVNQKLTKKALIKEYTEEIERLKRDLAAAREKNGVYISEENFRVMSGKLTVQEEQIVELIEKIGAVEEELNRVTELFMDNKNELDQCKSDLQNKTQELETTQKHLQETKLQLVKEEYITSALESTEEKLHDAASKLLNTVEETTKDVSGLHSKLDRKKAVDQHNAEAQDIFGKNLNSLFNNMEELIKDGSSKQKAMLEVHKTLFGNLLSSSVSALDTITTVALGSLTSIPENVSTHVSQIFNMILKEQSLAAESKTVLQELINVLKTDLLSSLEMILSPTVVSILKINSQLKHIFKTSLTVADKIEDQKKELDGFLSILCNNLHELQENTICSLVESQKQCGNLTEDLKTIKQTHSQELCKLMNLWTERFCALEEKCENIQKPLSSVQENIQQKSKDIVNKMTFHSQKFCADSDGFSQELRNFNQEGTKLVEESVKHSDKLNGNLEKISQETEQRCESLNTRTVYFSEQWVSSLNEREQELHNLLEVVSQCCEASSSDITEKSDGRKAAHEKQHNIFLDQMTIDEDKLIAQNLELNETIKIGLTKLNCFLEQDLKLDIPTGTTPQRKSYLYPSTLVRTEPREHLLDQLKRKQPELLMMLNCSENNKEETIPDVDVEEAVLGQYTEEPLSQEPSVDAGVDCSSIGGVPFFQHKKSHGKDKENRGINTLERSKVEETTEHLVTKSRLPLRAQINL

[2] = target: T1, Kinesin-like protein KIF11; assay: Inhibition of kinesin spindle protein by ATPase assay
[3] = Protein binding in mouse plasma; assay type: ADME, cell-free; settings: read-out: PB (converted)
[4] = target: Voltage-gated inwardly rectifying potassium channel KCNH2 (Homo sapiens, UniProt Q12809); assay: Inhibition of hERG expressed in HEK cells; assay type: toxicity, cell-based, HEK293
Sequence of Voltage-gated inwardly rectifying potassium channel KCNH2 (Q12809 whole entry): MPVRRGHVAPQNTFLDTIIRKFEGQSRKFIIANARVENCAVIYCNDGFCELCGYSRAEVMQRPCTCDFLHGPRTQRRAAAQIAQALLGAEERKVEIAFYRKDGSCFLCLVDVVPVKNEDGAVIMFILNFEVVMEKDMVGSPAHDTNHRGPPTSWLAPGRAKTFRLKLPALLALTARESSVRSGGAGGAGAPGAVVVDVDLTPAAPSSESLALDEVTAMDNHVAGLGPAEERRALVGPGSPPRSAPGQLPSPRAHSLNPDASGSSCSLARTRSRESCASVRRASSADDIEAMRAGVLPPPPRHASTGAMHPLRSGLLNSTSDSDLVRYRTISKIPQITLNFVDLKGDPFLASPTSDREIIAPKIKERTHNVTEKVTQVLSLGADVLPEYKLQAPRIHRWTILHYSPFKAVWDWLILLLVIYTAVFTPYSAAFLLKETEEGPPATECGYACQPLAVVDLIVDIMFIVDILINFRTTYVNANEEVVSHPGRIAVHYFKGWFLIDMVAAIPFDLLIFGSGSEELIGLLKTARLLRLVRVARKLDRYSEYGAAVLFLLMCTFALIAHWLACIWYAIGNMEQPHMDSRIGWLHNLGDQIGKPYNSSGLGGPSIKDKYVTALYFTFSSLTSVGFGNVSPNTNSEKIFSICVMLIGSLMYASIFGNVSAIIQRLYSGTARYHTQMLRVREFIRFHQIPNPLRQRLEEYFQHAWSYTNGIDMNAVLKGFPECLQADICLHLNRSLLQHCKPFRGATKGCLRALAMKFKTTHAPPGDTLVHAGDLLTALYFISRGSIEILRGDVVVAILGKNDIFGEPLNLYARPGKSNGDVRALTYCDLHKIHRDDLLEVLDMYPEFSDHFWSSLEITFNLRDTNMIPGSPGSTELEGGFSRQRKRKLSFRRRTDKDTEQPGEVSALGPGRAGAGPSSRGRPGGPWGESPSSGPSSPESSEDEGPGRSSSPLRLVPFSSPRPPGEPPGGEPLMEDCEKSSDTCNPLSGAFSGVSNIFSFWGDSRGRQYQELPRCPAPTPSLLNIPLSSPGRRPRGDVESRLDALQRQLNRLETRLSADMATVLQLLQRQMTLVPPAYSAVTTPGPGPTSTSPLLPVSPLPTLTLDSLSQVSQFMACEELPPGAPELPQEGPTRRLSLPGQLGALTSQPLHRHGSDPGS

Homo sapiens = organism: Homo sapiens; assay: Protein binding in human plasma; settings: read-out: PB (converted)
[5] = Solubility at pH 4; assay type: physicochemical; settings: buffer
KB 3-1 = assay: Ratio of IC50 for KB-V-1 cells to IC50 for KB-3-1 cells; assay type: functional, Homo sapiens
A2780 = assay: Mitotic arrest in human A2780 cells xenografted nude mouse assessed as induction of phospho-histone H3 at 3.5 mg/kg; assay type: functional

Q: For `CC(=O)C1=NN(c2cc(F)ccc2F)CC1(CCCN1CC2CC1CO2)c1ccccc1` (racemic), which EC50 [1] is on record?
A: 11 nM

Q: What about the IC50 [2] of the same compound?
A: 1.2 nM

Q: For `CC(=O)C1=NN(c2cc(Br)ccc2F)CC1(CCCN1CCN(C(C)=O)CC1)c1ccccc1` (racemic), which EC50 [1] is on record?
A: 38 nM

Q: What about the IC50 [2] of the same compound?
A: 4.7 nM

Q: For `CC(=O)C1=NN(c2cc(F)ccc2F)CC1(CCCN1CCN(C(C)=O)CC1)c1ccccc1` (racemic), which EC50 [1] is on record?
A: 78 nM

Q: What about the IC50 [2] of the same compound?
A: 3.8 nM

Q: Which results are given for `CC(=O)C1=NN(c2cc(F)ccc2F)CC1(CCCN1CCCC1)c1ccccc1` (racemic)?
A: EC50 [1]: 15 nM; IC50 [2]: 3.8 nM

Q: For `CC(=O)C1=NN(c2cc(C(F)(F)F)ccc2F)CC1(CCCN1CCN(C(C)=O)CC1)c1ccccc1` (racemic), which EC50 [1] is on record?
A: 208 nM

Q: And the IC50 [2]?
A: 10.1 nM

Q: What does the source list for `CC(=O)C1=NN(c2cc(C)ccc2F)C[C@@]1(CCCN(C)C)c1ccccc1`?
A: fraction unbound [3]: 0.07; IC50 [4]: 3040 nM; EC50 [1]: 3.2 nM; fraction unbound (Homo sapiens): 0.04; solubility [5]: > 4000 µg/mL; Ratio IC50 (KB 3-1): 1.6; IC50 [2]: 0.2 nM; EC99 (A2780): 67 nM

Q: With `CC(=O)C1=NN(c2cc(F)ccc2F)CC1(CCCN1CC(F)C1)c1ccccc1` (racemic) as the compound, how does the EC50 [1] read?
A: 40 nM

Q: What about the IC50 [2] of the same compound?
A: 5.2 nM

Q: For `CC(=O)C1=NN(c2cc(F)ccc2F)CC1(CCCN1CCS(=O)(=O)CC1)c1ccccc1` (racemic), which EC50 [1] is on record?
A: 138 nM

Q: What about the IC50 [2] of the same compound?
A: 16.5 nM

Q: With `CC(=O)C1=NN(c2cc(Cl)ccc2F)CC1(CCCN1CCN(C(C)=O)CC1)c1ccccc1` (racemic) as the compound, how does the EC50 [1] read?
A: 46 nM

Q: What about the IC50 [2] of the same compound?
A: 3.9 nM

Q: For `CC(=O)C1=NN(c2cc(F)ccc2F)CC1(CCCN(C)C)c1ccccc1` (racemic), which EC50 [1] is on record?
A: 9.4 nM

Q: And the IC50 [2]?
A: 2.1 nM

Q: With `CC(=O)C1=NN2c3cc(F)ccc3OC[C@H]2[C@@]1(CCCN1CCN(C(C)=O)CC1)c1ccccc1` as the compound, how does the EC50 [1] read?
A: 5 nM

Q: And the solubility [5]?
A: > 4000 µg/mL

Q: And the EC99 (A2780)?
A: 100 nM

Q: Which EC50 [1] does the source give for `CC(=O)C1=NN(c2cc(C)ccc2F)CC1(CCCN1CCN(C(C)=O)CC1)c1ccccc1` (racemic) here?
A: 27 nM

Q: And the IC50 [2]?
A: 2 nM

Q: Which EC50 [1] does the source give for `CC(=O)C1=NN(c2cc(F)ccc2F)CC1(CCCN(C)Cc1cc(C)no1)c1ccccc1` (racemic) here?
A: 567 nM

Q: What about the IC50 [2] of the same compound?
A: 4 nM

Q: Which results are given for `CC(=O)C1=NN(c2ccccc2F)CC1(CCCN1CCN(C(C)=O)CC1)c1ccccc1` (racemic)?
A: EC50 [1]: 368 nM; IC50 [2]: 21.8 nM

Q: With `CC(=O)C1=NN(c2cc(F)ccc2F)CC1(CCCN1CCOCC1)c1ccccc1` (racemic) as the compound, how does the EC50 [1] read?
A: 53 nM

Q: And the IC50 [2]?
A: 4.2 nM

— ChEMBL document CHEMBL1139812, “Kinesin spindle protein (KSP) inhibitors. Part 8: Design and synthesis of 1,4-diaryl-4,5-dihydropyrazoles as potent inhibitors of the mitotic kinesin KSP” (Bioorg Med Chem Lett, 2007)
